A word on the melting point: it is the temperature of the solid-liquid transition.

`CC(C)[C@H](NC(=O)OCc1csc(N2CCOCC2)n1)C(=O)N[C@@H](Cc1ccccc1)C[C@H](O)[C@H](Cc1ccccc1)NC(=O)OCc1cncs1` showed a melting point of 169 to 170 °C.

Consider `COc1cc(NC(=O)CCCCCN2CC(C)NC(C)C2)c2nccc(C)c2c1` (centres undefined), for which the melting point was in the range of 94 to 96 °C.

`Clc1nc(Cl)nc(N2CCc3ccccc32)n1` yielded a melting point of 254 to 256 °C.

For the compound `CCC(=O)NCc1cccc(-c2nc(=O)c3ccccc3s2)n1`, the melting point fell in the range of 199 to 200 °C.

`FC(F)c1nc2ccccc2n1-c1nc(Nc2cncnc2)nc(N2CCOCC2)n1` showed a melting point of 290 to 292 °C.

Consider `O=C1CN2CCC(CC2)N1`, for which the melting point lay in the range of 121 to 122 °C.

Consider `c1ccc2[nH]c(C34CC5CC(CC(C5)C3)C4)cc2c1`, for which the melting point stood at 48 °C.

`CCCN(C1CC(C)(C)Oc2ccc(OCCOC)cc21)S(=O)(=O)CC` (centres undefined) came in with a melting point of 78 to 80 °C.

For `CCCCCCCCCCCCCCCCOCC(CO)OCOC(C)=O` (centres undefined), the melting point is 44 °C.

`O=C(c1ccccc1)c1[nH]c2cc(Cl)ccc2c1NC(=O)N1CCOCC1` yielded a melting point of 168 to 170 °C.

`O=C(NCc1ccc(Cl)cc1)c1n[nH]c2ccccc2c1=O`: the melting point was in the range of 269 to 271 °C.

Compound `SCC1CSC2(SCCS2)S1` (centres undefined) yielded a melting point of 79 to 80.5 °C.

Take `Cc1ccc2scc(CCNc3ncnc4c3ncn4C3OC(CO)C(O)C3O)c2c1` (centres undefined): the melting point was 158 to 160 °C.

Turning to `CCOc1cc(C2c3cccc(C4CC4C(N)=O)c3C(=O)N2CCS(C)(=O)=O)ccc1O` (centres undefined), the melting point turned out to be 296 °C.

In turn, `CCOC(=O)C(=CNc1cnnn1C)C(=O)c1cc(F)c(Cl)nc1Cl` gave a melting point of 187 to 189 °C.

As for `Cc1c(C)c2c(c(C)c1NC(=O)CC(C)(C)C)C(c1ccc(Br)cc1)C(C)(C)O2` (centres undefined), the melting point is 201 to 202 °C.

As for `CCOCc1nc2c(N)nc(C)c(C)c2n1CCCCNS(C)(=O)=O`, the melting point fell in the range of 165 to 167 °C.

Turning to `CC(C)(C)OC(=O)Nc1ccccc1NC(=O)c1ccc(C#N)nc1`, the melting point lay in the range of 183 to 184 °C.

`COC(=O)C(C#N)(CCCN(C)CCc1ccc(OC)c(OC)c1)c1ccc(OC)c(OC)c1` (centres undefined) registered a melting point of 129 to 130 °C.

`O=c1ccc(S(=O)(=O)n2ccnc2)n[nH]1` came in with a melting point of 55 to 60 °C.

Compound `O=C(O)c1cn(C2CC2)c2nc(N3CCNCC3)c(F)cc2c1=O` yielded a melting point of 274 to 276 °C.

`CN(C)CCOC(=O)c1cccc2cc(-c3ccccc3)oc12` returned a melting point of 56.5 to 58 °C.

In turn, `C#CCn1c(C(F)(F)F)c(C=O)c2ccccc21` displayed a melting point of 106 °C.

`COC1=C(OC)C(=O)C2=C(CC(CCCCCCCCNC(C)=O)C2)C1=O` yielded a melting point of 93 to 96 °C.

For the compound `CCCCS(=O)(=O)NC1Cc2ccc(C(C)=O)cc2C1` (centres undefined), the melting point lay within 90 to 92 °C.

As for `Cc1oc2c(NC(=O)c3c(C(=O)OC(C)C)cccc3[N+](=O)[O-])cccc2c1C(C)(C)O`, the melting point was in the range of 118 to 120 °C.

The compound `Cc1cc(-c2cc(C(F)(F)F)nc(-n3cnc(-c4ccc(S(N)(=O)=O)cc4)c3)n2)ccc1C(F)(F)F` came in with a melting point of 287 °C.

`Cc1cccc(C(=O)NCN2CCN(c3ccccn3)CC2)c1` had a melting point of 141 to 143 °C.

Turning to `O=C(NC1CCCCC1)c1c(O)c2cc(Cl)ccc2n(Cc2ccccc2)c1=O`, the melting point amounted to 158 °C.

`O=S(=O)(c1c(-c2cc(Cl)cc(Cl)c2)[nH]c2c(Cl)cc(Cl)cc12)C(F)(F)F` returned a melting point of 300 to 302 °C.

Compound `O=C(O)c1cc(S(=O)(=O)N2CCSCC2)ccc1Br` showed a melting point of 195 to 198 °C.

With `COC(=O)CCC1(CCC(=O)OC)CCC(=O)N1`, the melting point fell in the range of 70 to 73 °C.

The compound `CCC(CC)Oc1cc(C)nc(Nc2c(C)cc(C)cc2C)c1C` displayed a melting point of 132 to 133 °C.

In the case of `CC(=O)O[C@H]1CS[C@H](COC(=O)c2ccccc2)O1` (relative stereo), the melting point was 67 to 68 °C.

The compound `CON=Cc1ccc2c(c1)ncn2-c1cccc(-n2ccnc2)c1` registered a melting point of 197 to 199 °C.

The compound `CCOC(=N)CC1(C)OCCc2c1[nH]c1ccccc21` (centres undefined) had a melting point of 140 to 141 °C.

`NC(=O)C1CCN(CCO)CC1`: the melting point is 141 to 142 °C.

Regarding `Cc1nn(-c2ccc(Cl)cc2)c(C)c1NC(N)=S`, the melting point is 244 to 246 °C.

Compound `Cc1cccc(-n2ncc(-c3ccc(S(C)(=O)=O)cc3)c(-c3ccc(F)cc3)c2=O)c1` gave a melting point of 213 to 216 °C.

Take `O=C(O)Cc1ccc2c(c1)CC(=O)c1ccccc1C2`: the melting point was in the range of 163 to 165 °C.

In turn, `CC(=O)c1c(C)c(NC(=O)CC(C)(C)C)c(C)c2c1OCC2c1ccc(C(C)C)cc1` (centres undefined) registered a melting point of 176 to 177 °C.

`CC(C)(C)OC(=O)NCCC(=O)NCc1cccc2c1CN(C1CCC(=O)NC1=O)C2=O` (centres undefined) had a melting point of 203 to 205 °C.

`CCN(CC)CCNc1cc(Sc2ccc(Cl)cc2)nc(-c2ccccc2)n1` registered a melting point of 83.5 to 86 °C.

`Cc1oc(-c2ccccc2)nc1CCOc1ccc(CCCC2OC(=O)NC2=O)cn1` (centres undefined) displayed a melting point of 169 to 171 °C.

In the case of `Cc1cc(Cc2cc(C)c(N)c(C)c2)cc(C)c1N`, the melting point lay within 119 to 120 °C.

In turn, `C/C(=C\c1ccc(C=O)cc1)c1ccc2c(c1)C(C)(C)CCO2` yielded a melting point of 102 to 104 °C.

`O=C1Nc2cccc(F)c2C(=O)N2CC[C@@H]12` returned a melting point of 232 to 234 °C.

The compound `CCOP(=O)(CC(=O)Nc1c(C(C)C)cccc1C(C)C)OCC` returned a melting point of 119 to 120 °C.

With `CCOC(=O)c1cn(C2CC2)c2cc(-c3cc(C4OCC(C)(C)CO4)cc(OC)c3OC)c(F)cc2c1=O`, the melting point lay in the range of 178 to 180 °C.

Turning to `CCOCC1COc2cc3c(O)c(C#N)cnc3cc2O1` (centres undefined), the melting point fell in the range of 248 to 254 °C.

`C=CCOc1nc(SC)nc(NC(C)C)c1[N+](=O)[O-]` gave a melting point of 51 to 54 °C.

For `COc1ccc(Oc2ccc(C(=O)CCC#N)cc2)cc1`, the melting point was 88 °C.

`CSc1nnc2n1C=Cc1ccccc1C2c1ccccc1` (centres undefined) displayed a melting point of 169 to 170 °C.

Compound `CCCCNc1cccc2c1C(=O)c1cccc(NCCCC)c1C2=O` came in with a melting point of 152 to 153 °C.

In the case of `CCCc1c(CSc2nnc(N)s2)ccc(C(C)=O)c1O`, the melting point lay in the range of 143 to 147 °C.

As to `COc1ccc(Nc2ncc3ccc(=O)n(C4CCCC4)c3n2)cn1`, the melting point lay in the range of 181 to 182 °C.

Regarding `O=S(=O)(Nc1ccccc1NCCOc1ccc(Cl)cc1)c1ccc(Cl)cc1`, the melting point worked out at 158 °C.

`CC(Cc1c[nH]c2ccccc12)(NCc1cc2ccccc2o1)C(=O)NCc1cccc(O)c1` (centres undefined) returned a melting point of 60 to 69 °C.

In the case of `CCOCc1nc2c(N)nc3cc(-c4cccnc4)ccc3c2n1CCNC(=O)C(C)C`, the melting point was in the range of 213 to 215 °C.

Turning to `Cc1cccc(-c2nc(CCOc3ccc(/C=C/CO)cc3)c(C)o2)c1`, the melting point fell in the range of 116 to 117 °C.

`CCc1cn2c(N)c(Cl)cc(C(=O)NC3CCN(CCCOC)CC3)c2n1` came in with a melting point of 179 °C.

Compound `CC(C)(C)[C@H]1CC[C@@H](Nc2nnc(CCc3cccnc3)c3ccccc23)CC1` had a melting point of 155 to 157 °C.

Compound `Cc1cccc(C(=O)OC2CCCCC2=O)c1` (centres undefined) registered a melting point of 73 to 74 °C.

In the case of `O=C(NC12CC3CC(CC(C3)C1)C2)c1nc(Br)n(-c2ccccc2)c1Br`, the melting point lay within 228 to 231 °C.

`C#CC1(Oc2ccc(F)cc2[N+](=O)[O-])CCN(C)CC1` displayed a melting point of 70 to 73 °C.

On to `c1ccc(-c2ccc3[nH]c4c(c3c2)CCNCC4)cc1`, for which the melting point was > 250 °C.

Compound `Fc1ccc(F)c(N=C2CCCc3cc4c(nc32)C(=Nc2c(F)cccc2F)CCC4)c1` returned a melting point of 145 to 150 °C.

With `CN1CCN(C2c3ccccc3-c3[nH]c(=O)c(=O)[nH]c32)CC1` (centres undefined), the melting point fell in the range of 263 to 265 °C.

On to `CC1(c2ccc(F)cc2)Cc2cc(OCC(=O)O)c(Cl)c(Cl)c2C1=O` (centres undefined), for which the melting point lay within 150 to 156 °C.

Compound `CC(=O)C(C)(C)Cc1cc(C(C)(C)C)c(O)c(C(C)(C)C)c1` returned a melting point of 75 °C.

`Cc1nc2cccc3n(CCCCCNS(=O)(=O)CC(F)(F)F)c(=O)c1n23` had a melting point of 143 to 145 °C.

`CCc1nc2c(N)nc3cc(OCCc4c[nH]c5ccccc45)ccc3c2s1` had a melting point of 218 to 220 °C.

`Cc1oncc1C(=O)Nc1ccc(-n2nc(C(F)(F)F)cc2C2CC2)c(F)c1` had a melting point of 125 to 128 °C.

For `COc1cc2c(cc1OC)C(C(C#N)SCCCO)=NCC2` (centres undefined), the melting point lay in the range of 155 to 156 °C.

`O=C(O)Cc1ccccc1Sc1ccc(F)c(Cl)c1` gave a melting point of 85 to 87 °C.

`COc1ccc(CCNC(=O)CCCCC(=O)NCCc2ccc(OC)c(OC)c2Cl)c(Cl)c1OC` came in with a melting point of 159 to 161 °C.

Take `CS(=O)(=O)c1ccc(-c2cc(CCO[N+](=O)[O-])nn2C2CCCCC2)cc1`: the melting point worked out at 117 °C.

In the case of `O=C(Nc1ccc(-n2nc(C(F)(F)F)cc2C(F)(F)F)nc1)c1cc(F)c(F)cc1Cl`, the melting point was in the range of 113 to 116 °C.

Compound `CC1CCC(=NN)c2ncc(C(N)=O)c(=O)n21` (centres undefined) showed a melting point of 248 to 250 °C.

Regarding `COc1ccc2c(=O)cc(-c3ccccc3Cl)oc2c1`, the melting point was in the range of 148 to 150 °C.

The compound `Cc1cc(C2CC(C)(C)NC(C)(C)C2)cc(C)c1O` came in with a melting point of 152 to 154 °C.

Consider `CCn1c(=O)[nH]c2cc(NC(C)=O)ccc21`, for which the melting point was in the range of 247 to 249 °C.

As to `CCOC(=O)C1(F)C(=O)NC(=O)NC1O/N=C\c1ccc(C)o1` (centres undefined), the melting point fell in the range of 163 to 164 °C.

Turning to `c1coc(-c2nc(COc3ccc(CCCn4ccnc4)cc3)co2)c1`, the melting point is 92 to 93 °C.

`CC(=O)OC1CSC(Oc2cncc(-c3ccncc3Cl)c2)C(OC(C)=O)C1OC(C)=O` (centres undefined): the melting point was found to be 175 °C.

Compound `CCn1cc(-c2cccc(C(F)(F)F)c2)c(=O)n1-c1ccc(F)cc1` had a melting point of 92 °C.

`CC1(C)OC(=O)C(C(=O)Cc2cc(F)c(F)cc2F)C(=O)O1`: the melting point lay in the range of 102 to 104 °C.

In the case of `CCCCCc1ccc(-c2ncc(C#N)cn2)cc1`, the melting point fell in the range of 96 to 96.2 °C.

In turn, `CC(C)[C@H](NC(=O)OCc1csc(N(C)C)n1)C(=O)N[C@@H](Cc1ccccc1)[C@@H](O)C[C@H](Cc1ccccc1)NC(=O)OCc1cncs1` gave a melting point of 157 to 159 °C.

The values are drawn from a melting point compilation (Tetko et al.; mined from patent text by program, amines drawn as free bases though some values may be those of a salt).
